The values that follow come from patent US20200371122A1, “BIOMARKER FOR SENESCENT CELLS” (Buck Institute for Research on Aging, priority 2017, published 2020).

One experiment deals with PPARγ. As to the kind of experiment: PPARγ luciferase reporter in irradiated IMR-90 fibroblasts. The experiment is classed as cell-based, human. As to conditions: senescent cells, 10 days. The source says: Lentiviral NF-κB reporter constructs (SA Biosciences) and baculoviral PPAR gamma constructs (Signosis) were transduced into proliferating cells. Following treatment, luciferase was extracted using Passive Lysis Buffer (Promega) and analyzed using a commercially available kit (Promega) using a Perkin-Elmer Victor™ X3 luminometer.

Another experiment concerns IMR-90 fibroblasts. The class given is cell-based, human. As to conditions: for number of cells following irradiation: 5 Gy IR, 10 days. How it is done:
Human fetal lung fibroblasts (IMR-90) were cultured in Dulbecco's modified eagle medium (DMEM) supplemented with 10% FBS and penicillin/streptomycin. LL 29 (AnHa) cells were obtained from the ATCC and growth to confluence using the ATCC protocol, but were subcultured as described for IMR-90 before initiation of all experiments. Quiescence was induced by replacing culture media with media containing 0.2% FBS. MCF-7 and MDA-MB-231 breast cancer cells were cultured in RPMI supplemented with 10% FBS and penicillin/streptomycin. All cells were cultured at 3% O2, and used between 25 and 40 population doublings. All cells were mycoplasma free.
RNA was extracted from cells or tissues using commercially available kits (Isolate II—Bioline for cells; Direct-zol—Zymo for tissues) according to the manufacturer's instructions. cDNA synthesis was performed using a High Capacity cDNA Reverse Transcription Kit (Thermo Fisher) according to the manufacturer's instructions. Quantitative PCR was performed on a LightCycler 480 II (Roche) using primers and probes designed for the Universal Probe Library. Primers and probes used for human transcripts were ACTB: 5′-CCAACCGCGAGAAGATGA (SEQ ID NO:1), 5′-TCCATCACGATGCCAGTG (SEQ ID NO:2), Probe #64; TUBA: 5′-cttcgtctccgccatcag (SEQ ID NO:3), 5′-ttgccaatctggacacca (SEQ ID NO:4), Probe #58; ALOX5: 5′-[…] (SEQ ID NO:5), 5′-[…] (SEQ ID NO:6), Probe #64; ALOX5AP: 5′-ggtctgcggggctacttt (SEQ ID NO:7), 5′-[…] (SEQ ID NO:8), Probe #18; ALOX12: 5′-[…] (SEQ ID NO:9), 5′-agccaggtcgtcaggag (SEQ ID NO:10), Probe #32; ALOX15: 5′-[…] (SEQ ID NO:11), 5′-[…] (SEQ ID NO:12), Probe #76; ALOX15B: 5′-[…] (SEQ ID NO:13), 5′-actgggaggcgaagaagg (SEQ ID NO:14), Probe #51; AKR1C1: 5′-catgcctgtcctgggattt (SEQ ID NO:15), 5′-[…] (SEQ ID NO:16), Probe #49; AKR1C2: 5′-ctatgcgcctgcagaggt (SEQ ID NO:17), 5′-[…] (SEQ ID NO:18), Probe #31; AKR1C3: 5′-[…] (SEQ ID NO:19), 5′-[…] (SEQ ID NO:20), Probe #78; CYSLTR2: 5′-[…] (SEQ ID NO:21), 5′-[…] (SEQ ID NO:22), Probe #18; DPEP1: 5′-gacgtcctgaggctggtg (SEQ ID NO:23), 5′-[…] (SEQ ID NO:24), Probe #9 (SEQ ID NO:25), ELOVL2: 5′-[…] (SEQ ID NO:26), 5′-[…] (SEQ ID NO:27), Probe #53; ELOVL4: 5′-catttggcccatggattc (SEQ ID NO:28), 5′-[…] (SEQ ID NO:29), Probe #31; ELOVL5: 5′-cccttccatgcgtccata (SEQ ID NO:30), 5′-[…] (SEQ ID NO:31), Probe #31; EPHX2: 5′-ttctgctggacaccctgaa (SEQ ID NO:32), 5′-[…] (SEQ ID NO:33), Probe #45; GPX4: 5′-ttcccgtgtaaccagttcg (SEQ ID NO:34), 5′-[…] (SEQ ID NO:35), Probe #36; LTA4H: 5′-ctgctctcacggtccagtc (SEQ ID NO:36), 5′-[…] (SEQ ID NO:37), Probe #64; LTBR2: 5′-[…] (SEQ ID NO:38), 5′-[…] (SEQ ID NO:39), Probe #33; LTC4S: 5′-[…] (SEQ ID NO:40), 5′-[…] (SEQ ID NO:41), Probe #18; PTGDS: 5′-[…] (SEQ ID NO:42), 5′-[…] (SEQ ID NO:43), Probe #36; PTGES: 5′-agagatgcctgcccacag (SEQ ID NO:44), 5′-tggccaccacgtacatctt (SEQ ID NO:45), Probe #4; PTGES2: 5′-[…] (SEQ ID NO:46), 5′-[…] (SEQ ID NO:47), Probe #49; PTGES3 (SEQ ID NO:48), 5′-[…] (SEQ ID NO:49), 5′-[…] (SEQ ID NO:50), Probe #48; PTGIS: 5′-[…] (SEQ ID NO:51), 5′-[…] (SEQ ID NO:52), Probe #45; PTGR1: 5′-atgatggggcagcaagtg (SEQ ID NO:53), 5′-cccatcagaaatggagtgc (SEQ ID NO:54), Probe #64; PTGS1: 5′-[…] (SEQ ID NO:55), 5′-gtggtggtccatgttcctg (SEQ ID NO:56), Probe #81; PTGS2: 5′-gatccccagggctcaaac (SEQ ID NO:57), 5′-[…] (SEQ ID NO:58), Probe #61; TBXAS1: 5′-[…] (SEQ ID NO:59), 5′-tgcctcccgtgtgaatct (SEQ ID NO:60), Probe #73; AREG: 5′-[…] (SEQ ID NO:61), 5′-[…] (SEQ ID NO:62), Probe #73; CCL2: 5′-AGTCTCTGCCGCCCTTCT (SEQ ID NO:63), 5′-GTGACTGGGGCATTGATTG (SEQ ID NO:64), Probe #40; CCL27: 5′-[…] (SEQ ID NO:65), 5′-gctgggtggcagtaggaat (SEQ ID NO:66), Probe #18; CXCL1: 5′-[…] (SEQ ID NO:67), 5′-[…] (SEQ ID NO:68), Probe #52; HGF: 5′-[…] (SEQ ID NO:69), 5′-[…]

Take `CS(=O)(=O)Nc1ccc([N+](=O)[O-])cc1OC1CCCCC1` [NS-398]: the PPARγ activation reduced with PPARγ is recorded as about 50%. In addition, the “number of cells following irradiation” value in the experiment with IMR-90 fibroblasts is reported as “significantly increased”. In addition, the “cell number relative to DMSO-treated SEN(IR) cells” value with IMR-90 fibroblasts (SEN(IR) cells counted for IL-6 ELISA normalization) is “increase in cell number”.

`CC(c1cc2ccccc2s1)N(O)C(N)=O` (stereo not shown) [zileuton]: the “number of cells following irradiation” value with IMR-90 fibroblasts is “mildly increased”.
